The values below come from patent US9700572B2, “Anti-cancer agent” (priority 2012, dated 2017).

Series [1] relates to CD44+ESA+CD24+ pancreas cancer stem cell (PANC-1). The series can be described thus: Test Example 8: cancer stem cell marker staining (CD44, CD24, ESA), FACS. The class given is cell-based, human. The settings on record: 3 μM arctigenin. The procedure: (§1) For preparation of the glucose-containing medium, 4.75 g of Dulbecco's modified Eagle medium 2 (Nissui Pharmaceutical) was dissolved in water, added by 12.5 ml of 1M HEPES pH 7.4 (DOJINDO LABORATORIES, 342-01375), sterilized, added by 18.5 ml of 10% NAHCO3, 10 ml of L-glutamine (Sigma-Aldrich), 5 ml of Anti-Anti (Life technologies), 5 ml of MEM NON-ESSENTIAL AMINO ACID SOLUTION (Sigma-Aldrich) and 50 ml of FETAL BOVINE SERUM (Biowest) that was inactivated in a warm bath at 56° C. for 30 minutes, and finally filled up to 500 ml. The glucose inhibition medium was prepared by adding 2-Deoxy-Glucose (2-DG) (Tokyo Chemical Industry) in 20 mM of final concentration to the glucose-containing medium. The medium containing 3 μM arctigenin was prepared by adding arctigenin ([…] Pharmaceutical) in 3 μM of final concentration to the glucose-containing medium or the glucose inhibition medium. For preparation of FACS buffer, 10 g of Bovine serum albumin Protease free (Wako Pure Chemical industries) was dissolved in 1 L of PBS (-), added by sodium azide in 0.1% of final concentration and performed filtration sterilization. For the fluorescence-labeled antibody for FACS assays, CD44 (338803 or 338807, BioLegend), CD24 (311117, BioLegend), ESA (324205, BioLegend) and c-[…]-8858, eBioscience) were used. In addition, a staining step was carried out according to the attached data sheet to the product. The pancreas cancer cell PANC-1 (ATCC No CRL-1469 was seeded in a glucose-containing medium, incubated overnight and then incubated in each of the glucose-containing medium, the glucose inhibition medium, the glucose-containing medium containing 3 μM arctigenin and the glucose inhibition medium containing 3 μM arctigenin for 24 hours. After collected cells, PI staining (dead cell staining) and cancer stem cell marker staining were carried out according to the usual method and an Analysis was carried out using flow cytometry (FACS). For a marker, triple positive of CD44, CD24 and ESA (CD326) or double positive of CD44 positive and c-Met strong positive which were reported as a stem cell marker of pancreas cancer were used.

The test system of series [2] is pancreas cancer cell PANC-1. The series can be described thus: Test Example 8: PI staining (dead cell staining), FACS. The settings on record: 3 μM arctigenin. The class given is cell-based, human. The procedure:
For preparation of the glucose-containing medium, 4.75 g of Dulbecco's modified Eagle medium 2 (Nissui Pharmaceutical) was dissolved in water, added by 12.5 ml of 1M HEPES pH 7.4 (DOJINDO LABORATORIES, 342-01375), sterilized, added by 18.5 ml of 10% NAHCO3, 10 ml of L-glutamine (Sigma-Aldrich), 5 ml of Anti-Anti (Life technologies), 5 ml of MEM NON-ESSENTIAL AMINO ACID SOLUTION (Sigma-Aldrich) and 50 ml of FETAL BOVINE SERUM (Biowest) that was inactivated in a warm bath at 56° C. for 30 minutes, and finally filled up to 500 ml. The glucose inhibition medium was prepared by adding 2-Deoxy-Glucose (2-DG) (Tokyo Chemical Industry) in 20 mM of final concentration to the glucose-containing medium. The medium containing 3 μM arctigenin was prepared by adding arctigenin ([…] Pharmaceutical) in 3 μM of final concentration to the glucose-containing medium or the glucose inhibition medium. For preparation of FACS buffer, 10 g of Bovine serum albumin Protease free (Wako Pure Chemical industries) was dissolved in 1 L of PBS (-), added by sodium azide in 0.1% of final concentration and performed filtration sterilization. The pancreas cancer cell PANC-1 (ATCC No CRL-1469 was seeded in a glucose-containing medium, incubated overnight and then incubated in each of the glucose-containing medium, the glucose inhibition medium, the glucose-containing medium containing 3 μM arctigenin and the glucose inhibition medium containing 3 μM arctigenin for 24 hours. After collected cells, PI staining (dead cell staining) and cancer stem cell marker staining were carried out according to the usual method and an Analysis was carried out using flow cytometry (FACS). For a marker, triple positive of CD44, CD24 and ESA (CD326) or double positive of CD44 positive and c-Met strong positive which were reported as a stem cell marker of pancreas cancer were used.

In series [3] the test system is CD44+,c-MetHigh pancreas cancer stem cell (PANC-1). Briefly: Test Example 8: cancer stem cell marker staining (CD44, c-Met), FACS. It counts as cell-based, human. The settings on record: 3 μM arctigenin. The procedure: as §1
Series [4] deals with CD44+ESA+CD24+ pancreas cancer stem cell (Capan-1). Briefly: Test Example 9: cancer stem cell marker staining (CD44, CD24, ESA), FACS. The class given is cell-based, human. The procedure:
(§2) For preparation of the glucose-containing medium, 4.75 g of Dulbecco's modified Eagle medium 2 (Nissui Pharmaceutical) was dissolved in water, added by 12.5 ml of 1M HEPES pH 7.4 (DOJINDO LABORATORIES, 342-01375), sterilized, added by 18.5 ml of 10% NAHCO3, 10 ml of L-glutamine (Sigma-Aldrich), 5 ml of Anti-Anti (Life technologies), 5 ml of MEM NON-ESSENTIAL AMINO ACID SOLUTION (Sigma-Aldrich) and 50 ml of FETAL BOVINE SERUM (Biowest) that was inactivated in a warm bath at 56° C. for 30 minutes, and finally filled up to 500 ml. The glucose inhibition medium was prepared by adding 2-Deoxy-Glucose (2-DG) (Tokyo Chemical industry) in 15 mM of final concentration to the glucose-containing medium. The medium containing 4 μM arctigenin was prepared by adding arctigenin ([…] Pharmaceutical) in 4 μM of final concentration to the glucose-containing medium or the glucose inhibition medium. The pancreas cancer cell Capan-1 (ATCC No. HTB-79) was seeded in a glucose-containing medium, incubated overnight and then incubated in each of a glucose-containing medium, a glucose inhibition medium, a glucose-containing medium containing 4 μM arctigenin and a glucose inhibition medium containing 4 μM arctigenin, or in 7 μM cisplatin (CDDP: Wako Pure Chemical Industries) for 24 hours. After collected cells, PI staining (dead cell staining) and cancer stem cell marker staining were carried out according to the usual method and an Analysis was carried out using flow cytometry (FACS). For the marker, triple positive of CD44, CD24 and ESA (CD326) which was reported as a stern cell marker of pancreas cancer was used.

Series [5] deals with human pancreas cancer cell line CAPAN-1. Briefly: Test Example 6: antitumor evaluation in tumor model animal (CAPAN-1 Xenografts). It counts as in vivo, nude mouse. The following applies: 50 μg per mouse orally five times a week; one month; FIG. 4. The procedure: (§3) The model animal of a tumor was made by seeding human pancreas cancer cell line CAPAN-1 or PSN-1 in subcutis of back of a nude mouse (BALB-cAJnu/nu; CLEA Japan, Inc.) as a donor and transplanting the tumor mass of the provided donor mouse into subcutis of back of a recipient mouse, Arctigenin (AG), arctiin (A) and the burdock fruit extract (Example 12) were dissolved in DMSO in concentration of 10 mg/ml, diluted with a saline, and then administered orally in stomach at 50 μg per one mouse five times a week. The anticancerous was evaluated by measuring the size of the subcutaneous tumor mass of the back with time.

Series [6] concerns pancreas cancer cell line PANC-1. The following applies: PANC-1 screening; cited from earlier work.
Series [7] has as its system pancreas cancer cell Capan-1. The series can be described thus: Test Example 9: PI staining (dead cell staining), FACS. The following applies: 24 hours. It counts as cell-based, human. The procedure: as §2
For series [8], the system named is human pancreas cancer cell line PSN-1. Briefly: Test Example 6: antitumor evaluation in tumor model animal (PSN-1 Xenografts). The class given is in vivo, nude mouse. The following applies: 50 μg per mouse orally five times a week; one month; FIG. 5. The procedure:
as §3

For series [9] the following is noted: cited from earlier work.

Turning to `COc1cc(C[C@H]2C(=O)OC[C@@H]2Cc2ccc(OC)c(OC)c2)ccc1O` [arctigenin], the “ratio of CD44+ESA+CD24+ cell in all analyzed cells” value stood at 0.98% in series [1] (glucose inhibition condition, without arctigenin 6.51%); 5.01% in [1] (glucose-containing condition, without arctigenin 4.41%); 0.24% in [4] (4 μM arctigenin, glucose inhibition condition, without arctigenin 1.40%); 1.04% in series [4] (4 μM arctigenin, glucose-containing condition, without arctigenin 0.87%). Besides, the “number of the survival of CD44+ESA+CD24+ cell” value in series [1] (glucose inhibition condition, without arctigenin 651) was 98; in series [1] (glucose-containing condition, without arctigenin 441), 501; in series [4] (4 μM arctigenin, glucose inhibition condition, without arctigenin 105), 18; in series [4] (4 μM arctigenin, glucose-containing condition, without arctigenin 65), 78. Also, the “cellular survival rate (PI staining)” value in [2] (glucose inhibition condition (20 mM 2-DG), 24 hours, FIG. 6, without arctigenin 68.53%) stood at 35.71%; in series [2] (glucose inhibition condition, FIG. 7, without arctigenin 88.80%), 27.50%; in [2] (glucose-containing condition, 24 hours, FIG. 6, without arctigenin 78.20%), 69.50%; in series [2] (glucose-containing condition, FIG. 7, without arctigenin 84.70%), 83.30%; in series [7] (4 μM arctigenin, glucose inhibition condition (15 mM 2-DG), without arctigenin 79.10%), 48.73%; in [7] (4 μM arctigenin, glucose-containing condition, without arctigenin 67.57%), 72.80%. Besides, the “positive ratio of CD44+,c-MetHigh cell in all analyzed cells” value in series [3] (glucose inhibition condition, without arctigenin 0.78%) is recorded as 0.22%; in series [3] (glucose-containing condition, without arctigenin 0.63%) it was 0.52%. Besides, the “number of the survival of CD44+,c-MetHigh cell” value turned out to be 13 in series [3] (glucose inhibition condition, without arctigenin 47) and 31 in series [3] (glucose-containing condition, without arctigenin 38). Also, the “ratio of CD44+ESA+CD24+ cell analyzed in viable cells” value turned out to be 0.50% in series [4] (4 μM arctigenin, glucose inhibition condition, without arctigenin 1.77%) and 1.43% in [4] (4 μM arctigenin, glucose-containing condition, without arctigenin 1.28%). The “antitumor effect (size of subcutaneous tumor mass)” value in [5] and in series [8] was “antitumor effect was also obtained” each time. The “cancel the viability of tumor cells under undernutrition condition” value in [6] is recorded as “effective”. Also, the solubility in water result in [9] was “hardly soluble”.
For `COc1ccc(C[C@H]2COC(=O)[C@@H]2Cc2ccc(O[C@@H]3O[C@H](CO)[C@@H](O)[C@H](O)[C@H]3O)c(OC)c2)cc1OC` [arctiin], in series [9], the solubility in water entry is reported as “hardly soluble”.
As for `N.N.[Cl][Pt][Cl]` [cisplatin, reference compound], in series [4] (7 μM cisplatin treatment), the “number of the survival of CD44+ESA+CD24+ cell” value was 88, the “ratio of CD44+ESA+CD24+ cell analyzed in viable cells” value stood at 2.02% and the “ratio of CD44+ESA+CD24+ cell in all analyzed cells” value was found to be 1.17%. In addition, the “cellular survival rate (PI staining)” value in [7] (7 μM cisplatin) came to 58.08%.
